Source: patent publication US7375180B2, “Methods and compositions related to IRM compounds and Toll-like receptor 8” (3M Innovative Properties Company, priority 2003, dated 2008)

Columns and labels:
TLR8 [1] = target: T1, TLR8 (Homo sapiens, UniProt Q9NR97); experiment: Dose dependent TLR8-mediated NF-κB-luciferase response in HEK293 cells transfected with TLR8 (Example 5); type: cell-based; set-up: expressed in transfected cells; host or cells: HEK293 (ATCC CRL-1573), pIRES vector, G-418 selected, co-transfected with NFkB-luc reporter
T1 sequence (Q9NR97 27-1041): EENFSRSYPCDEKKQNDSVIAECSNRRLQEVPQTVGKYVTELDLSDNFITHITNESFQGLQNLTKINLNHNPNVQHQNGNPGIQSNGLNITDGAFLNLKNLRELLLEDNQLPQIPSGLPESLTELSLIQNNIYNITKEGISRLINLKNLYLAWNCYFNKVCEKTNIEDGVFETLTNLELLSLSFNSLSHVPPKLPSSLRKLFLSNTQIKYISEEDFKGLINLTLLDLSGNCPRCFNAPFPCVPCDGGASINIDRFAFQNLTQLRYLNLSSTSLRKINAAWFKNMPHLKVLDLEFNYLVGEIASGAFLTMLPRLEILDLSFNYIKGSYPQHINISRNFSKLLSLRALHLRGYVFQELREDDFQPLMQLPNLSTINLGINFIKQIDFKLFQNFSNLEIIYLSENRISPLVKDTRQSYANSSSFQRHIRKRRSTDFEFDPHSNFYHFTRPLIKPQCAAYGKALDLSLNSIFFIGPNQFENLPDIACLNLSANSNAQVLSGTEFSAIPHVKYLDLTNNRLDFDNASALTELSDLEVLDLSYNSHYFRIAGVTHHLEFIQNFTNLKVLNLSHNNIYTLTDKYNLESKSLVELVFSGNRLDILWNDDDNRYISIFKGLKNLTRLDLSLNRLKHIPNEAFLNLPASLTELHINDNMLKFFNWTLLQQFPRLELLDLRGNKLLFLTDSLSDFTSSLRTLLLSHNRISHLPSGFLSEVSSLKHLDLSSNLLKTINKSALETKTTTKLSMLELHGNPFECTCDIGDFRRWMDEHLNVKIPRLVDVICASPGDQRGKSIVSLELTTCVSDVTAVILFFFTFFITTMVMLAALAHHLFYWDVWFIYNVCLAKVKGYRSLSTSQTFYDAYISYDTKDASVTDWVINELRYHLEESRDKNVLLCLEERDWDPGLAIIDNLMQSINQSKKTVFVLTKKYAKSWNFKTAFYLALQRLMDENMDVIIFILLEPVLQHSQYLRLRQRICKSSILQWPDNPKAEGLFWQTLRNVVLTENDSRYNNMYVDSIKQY
Description: Twenty-four hours before transfection, HEK293 cells were adhered to a 10 cm dish (Corning 430167, Corning Inc., Corning, N.Y.) at 37° C., 8% CO2. The cells were co-transfected with (1) pIRES (BD Biosciences Clontech, Palo Alto, Calif.) either (a) unmodified (HEK293-vector) or (b) containing human TLR8 (HEK293-TLR8), and (2) NFkB-luc reporter (Stratagene, La Jolla, Calif.) in a 10:1 ratio with Fugene 6 transfection reagent (Roche Diagnostics Corp., Indianapolis, Ind.) following the manufacturer's instructions. The plates were incubated for 24 hours following transfection and then selected in G-418 (400 μg/mL) for two weeks. The G-418-resistant cells containing either the TLR8 or empty vector were expanded in HEK293 media supplemented with G-418 for stimulation experiments.
The transfected cells were plated in white opaque 96 well plates (Costar 3917, Corning Inc., Corning, N.Y.) at a concentration of 5×10^4 cells per well in 100 μL of HEK293 media and incubated at 37° C., 8% CO2 for 4 hours. The cells were stimulated with 1 μL of IRM compounds at 1 mM in DMSO (final IRM concentration of 10 μM) or 1 μL DMSO as a control. The plates were then incubated an additional 16 hours at 37° C., 5% CO2. Luminescence was measured on an LMAX luminometer (Molecular Devices Corp., Sunnyvale, Calif.).
HEK293 cells were transfected as described in Example 1. HEK293 cultures were incubated with IRM compound or a negative control compound (1,5-dihydro-1-(2-methylpropyl)-4H-imidazo[4,5-c]quinolin-4-one, U.S. Pat. No. 4,698,348, Example 71) at concentrations of 0.1 μM, 0.3 μM, 1.0 μM, 3.0 μM, 10 μM, or 30 μM, or a vehicle control. Cultures were otherwise incubated as described in Example 1. Luciferase signals were read in RLU (Relative Luciferase Units) as described in Example 1.

TLR8 [2] = target: T1, TLR8; experiment: NF-κB-luciferase reporter activation in HEK293-TLR8 cells, 10 μM IRM (Example 1); type: cell-based; set-up: expressed in transfected cells; host or cells: HEK293 (ATCC CRL-1573), pIRES vector, G-418 selected, co-transfected with NFkB-luc reporter
Text: (§1) HEK293 cells, derived from human embryonic kidney cells, may be co-transfected with (1) either a control vector (HEK293-vector) or a vector construct including human TLR8 (HEK293-TLR8), and (2) an NF-κB-luciferase reporter. The NF-κB-luciferase reporter provides a luciferase signal upon NF-κB activation in a transfected cell. Thus, TLR8-mediated NF-κB activity can be detected by exposing the cells transfected with vector and the cells transfected with the TLR8 construct to a test compound, then comparing the luciferase signal of the vector-transfected cells with the luciferase signal of the cells transfected with the TLR8 construct.
(§2) HEK293 cells were cultured in 90% Minimum Essential Medium (MEM) with 2 mM L-glutamine and Earle's Balanced Salt Solution (Invitrogen Corp., Rockville, Md.) adjusted to contain 1.5 g/L sodium bicarbonate, 0.1 mM non-essential amino acids, and 1.0 mM sodium pyruvate; 10% heat-inactivated fetal calf serum. The cells were incubated at 37° C., 8% CO2.
(§3) The cells were co-transfected with (1) pIRES (BD Biosciences Clontech, Palo Alto, Calif.) either (a) unmodified (HEK293-vector) or (b) containing human TLR8 (HEK293-TLR8), and (2) NFkB-luc reporter (Stratagene, La Jolla, Calif.) in a 10:1 ratio with Fugene 6 transfection reagent (Roche Diagnostics Corp., Indianapolis, Ind.) following the manufacturer's instructions.
(§4) The cells were stimulated with 1 μL of IRM compounds at 1 mM in DMSO (final IRM concentration of 10 μM) or 1 μL DMSO as a control. The plates were then incubated an additional 16 hours at 37° C., 5% CO2. Luminescence was measured on an LMAX luminometer (Molecular Devices Corp., Sunnyvale, Calif.).

HEK293-vector = experiment: NF-κB-luciferase reporter activation in HEK293-vector control cells, 10 μM IRM (Example 1); type: cell-based, human; details: Homo sapiens, 16 hours, luciferase signal, vector-transfected cells, read-out: Fold Increase Over DMSO Control, HEK293-vector
Text: as §1, §2, §3, §4

Structure (SMILES) | Fold increase over vehicle (TLR8 [1]; 0.1 μM) [fold] | Fold increase over vehicle (TLR8 [1]; 0.3 μM) [fold] | Fold increase over vehicle (TLR8 [1]; 1.0 μM) [fold] | Fold increase over vehicle (TLR8 [1]; 3.0 μM) [fold] | Fold increase over vehicle (TLR8 [1]; 10 μM) [fold] | Fold increase over vehicle (TLR8 [1]; 30 μM) [fold] | Fold Increase Over DMSO Control, HEK293-TLR8 (TLR8 [2]; 16 hours, luciferase signal, TLR8-transfected cells) [fold] | Fold Increase Over DMSO Control, HEK293-TLR8 / HEK293-vector (TLR8 [2]; ratio of TLR8-transfected to vector-transfected cells) | fold induction at 10 µM (HEK293-vector)
CCOCc1nc2c(N)nc3ccccc3c2n1CC(C)(C)NC(=O)NC1CCCC1 [IRM54, 1-[2-(4-amino-2-ethoxymethyl-1H-imidazo[4,5-c]quinolin-1-yl)-1,1-dimethylethyl]-3-cyclopentylurea] | 0.9 | 0.9 | 1.2 | 2.6 | 5.9 | 9.2 | – | – | –
CCCNC(=O)NC(C)(C)Cn1c(COCC)nc2c(N)nc3ccccc3c21 [IRM55, 1-[2-(4-amino-2-ethoxymethyl-1H-imidazo[4,5-c]quinolin-1-yl)-1,1-dimethylethyl]-3-propylurea] | 0.7 | 1.1 | 1.0 | 2.9 | 7.2 | 9.9 | – | – | –
CCc1nc2c(N)nc3cc(-c4ccncc4)ccc3c2n1CC(C)(C)O [IRM59, 1-[4-amino-2-ethyl-7-(pyridin-4-yl)-1H-imidazo[4,5-c]quinolin-1-yl]-2-methylpropan-2-ol] | 1.0 | 1.3 | 2.1 | 5.5 | 9.5 | 9.8 | – | – | –
CCOCc1nc2c(N)nc3c(c2n1NC(C)C)CCCC3 [IRM60, 2-ethoxymethyl-N^1-isopropyl-6,7,8,9-tetrahydro-1H-imidazo[4,5-c]quinoline-1,4-diamine] | 1.1 | 1.0 | 1.1 | 2.7 | 6.2 | 9.1 | – | – | –
CCOCc1nc2c(N)nc3cc(-c4ccc(C(=O)N(C)OC)cc4)ccc3c2n1CC(C)(C)O [IRM61, 4-[4-amino-2-ethoxymethyl-1-(2-hydroxy-2-methylpropyl)-1H-imidazo[4,5-c]quinolin-7-yl]-N-methoxy-N-methylbenzamide] | 1.0 | 1.1 | 2.9 | 6.7 | 10.3 | 9.4 | – | – | –
CCOCc1nc2c(N)nc3c(c2n1CC(C)(C)O)CCCC3 [IRM 1, 4-amino-2-ethoxymethyl-α,α-dimethyl-6,7,8,9-tetrahydro-1H-imidazo[4,5-c]quinoline-1-ethanol] | – | – | – | – | – | – | 8.64 | 10.2 | 0.85

Second part, led by results:

Fold increase over vehicle (TLR8 [1]; 0.1 μM) [fold] | Fold increase over vehicle (TLR8 [1]; 0.3 μM) [fold] | Fold increase over vehicle (TLR8 [1]; 1.0 μM) [fold] | Fold increase over vehicle (TLR8 [1]; 3.0 μM) [fold] | Fold increase over vehicle (TLR8 [1]; 10 μM) [fold] | Fold increase over vehicle (TLR8 [1]; 30 μM) [fold] | Fold Increase Over DMSO Control, HEK293-TLR8 (TLR8 [2]; 16 hours, luciferase signal, TLR8-transfected cells) [fold] | Fold Increase Over DMSO Control, HEK293-TLR8 / HEK293-vector (TLR8 [2]; ratio of TLR8-transfected to vector-transfected cells) | Structure (SMILES) | fold induction at 10 µM (HEK293-vector)
1.2 | 2.1 | 4.1 | 5.8 | 7.8 | 9.3 | – | – | CCOCc1nc2c(N)nc3cc(-c4cncc(CO)c4)ccc3c2n1CC(C)(C)O [IRM52, 1-{4-amino-2-(ethoxymethyl)-7-[5-(hydroxymethyl)pyridin-3-yl]-1H-imidazo[4,5-c]quinolin-1-yl}-2-methylpropan-2-ol] | –
0.9 | 1.0 | 1.4 | 2.0 | 3.6 | 7.7 | – | – | CCOCc1nc2c(N)nc3cc(-c4ccc(CO)cc4)ccc3c2n1CC1COC(C)(C)O1 (stereo not drawn) [IRM53, 1-[(2,2-dimethyl-1,3-dioxolan-4-yl)methyl]-2-(ethoxymethyl)-7-(4-hydroxymethylphenyl)-1H-imidazo[4,5-c]quinolin-4-amine] | –
1.2 | 1.8 | 5.9 | 10.0 | 24.4 | 27.9 | – | – | CCOCc1nc2c(N)nc3cc(-c4ccncc4)ccc3c2n1CC(C)(C)O [IRM56, 1-[4-amino-2-ethoxymethyl-7-(pyridin-4-yl)-1H-imidazo[4,5-c]quinolin-1-yl]-2-methylpropan-2-ol] | –
1.4 | 1.7 | 3.1 | 7.2 | 10.4 | 12.5 | – | – | CCOCc1nc2c(N)nc3cc(-c4cccnc4)ccc3c2n1CC(O)CO (stereo not drawn) [IRM57, 3-[4-amino-2-(ethoxymethyl)-7-(pyridin-3-yl)-1H-imidazo[4,5-c]quinolin-1-yl]propane-1,2-diol] | –
0.7 | 0.8 | 0.9 | 3.2 | 6.9 | 7.8 | – | – | CCOCc1nc2c(N)nc3cc(-c4cccc(C(=O)N5CCCC5)c4)ccc3c2n1CC(C)(C)O [IRM58, {3-[4-amino-2-ethoxymethyl-1-(2-hydroxy-2-methylpropyl)-1H-imidazo[4,5-c]quinolin-7-yl]phenyl}pyrrolidin-1-ylmethanone] | –
